Values after ≈ are worked out from the molar mass of the structure shown.
Molecular target: Phosphatidylinositol 4,5-bisphosphate 3-kinase catalytic subunit alpha isoform (Homo sapiens, UniProt P42336)
Assay: Inhibition of PI3Kalpha in human HL60 cell lysate by kinobead assay
Conditions: not given

Sequence of Phosphatidylinositol 4,5-bisphosphate 3-kinase catalytic subunit alpha isoform (P42336 whole entry, canonical isoform): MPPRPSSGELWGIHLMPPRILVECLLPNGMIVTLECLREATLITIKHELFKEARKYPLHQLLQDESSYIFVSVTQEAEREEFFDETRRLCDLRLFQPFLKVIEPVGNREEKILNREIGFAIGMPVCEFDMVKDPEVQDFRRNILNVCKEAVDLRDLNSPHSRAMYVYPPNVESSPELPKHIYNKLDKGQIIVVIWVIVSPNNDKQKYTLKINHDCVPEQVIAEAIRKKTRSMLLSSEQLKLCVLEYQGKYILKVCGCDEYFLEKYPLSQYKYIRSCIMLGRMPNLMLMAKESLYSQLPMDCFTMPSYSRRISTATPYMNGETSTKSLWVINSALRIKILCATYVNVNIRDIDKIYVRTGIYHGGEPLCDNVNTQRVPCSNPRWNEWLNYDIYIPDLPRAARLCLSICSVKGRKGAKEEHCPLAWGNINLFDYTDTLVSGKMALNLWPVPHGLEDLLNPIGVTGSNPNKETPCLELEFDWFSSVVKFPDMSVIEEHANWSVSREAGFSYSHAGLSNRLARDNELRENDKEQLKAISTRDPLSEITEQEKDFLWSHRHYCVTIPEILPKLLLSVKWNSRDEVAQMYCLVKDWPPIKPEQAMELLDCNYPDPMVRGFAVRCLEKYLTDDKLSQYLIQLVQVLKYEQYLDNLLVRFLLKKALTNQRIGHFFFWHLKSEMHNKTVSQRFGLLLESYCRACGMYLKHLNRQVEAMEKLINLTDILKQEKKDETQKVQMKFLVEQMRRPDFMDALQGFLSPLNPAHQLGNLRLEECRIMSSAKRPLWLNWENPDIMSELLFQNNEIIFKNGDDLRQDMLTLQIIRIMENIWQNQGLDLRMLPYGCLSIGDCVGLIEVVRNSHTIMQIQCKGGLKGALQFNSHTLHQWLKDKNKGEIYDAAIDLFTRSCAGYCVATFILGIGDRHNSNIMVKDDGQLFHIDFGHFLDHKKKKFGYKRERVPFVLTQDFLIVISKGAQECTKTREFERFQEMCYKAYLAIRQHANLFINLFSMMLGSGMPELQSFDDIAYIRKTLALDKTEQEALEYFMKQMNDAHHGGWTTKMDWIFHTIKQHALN

| Structure (SMILES) | IC50 [nM] |
| --- | --- |
| CN(C)C(=O)CNC(=O)Nc1nc2ccc(-c3cncc(S(=O)(=O)NC(C)(C)C)c3)cn2n1 | 12600 |
| CC(C)(C)NS(=O)(=O)c1cncc(-c2ccc3nc(NC(=O)NCCc4nnc(C5CC5)o4)nn3c2)c1 | 3160 |
| CC(C)(C)NS(=O)(=O)c1cncc(-c2ccc3nc(NC(=O)NCCc4ccccc4)nn3c2)c1 | > 3160 |
| CNC(=O)Nc1nc2ccc(-c3cncc(S(=O)(=O)NC(C)(C)C)c3)cn2n1 | > 5010 |
| CNC(=O)CNC(=O)Nc1nc2ccc(-c3cncc(S(=O)(=O)NC(C)(C)C)c3)cn2n1 | > 15800 |
| Cc1noc(C)c1CCNC(=O)Nc1nc2ccc(-c3cncc(S(=O)(=O)NC(C)(C)C)c3)cn2n1 | 2000 |
| CC(C)(C)NS(=O)(=O)c1cncc(-c2ccc3nc(NC(=O)NCCN4CCOCC4)nn3c2)c1 | 1260 |
| CC(C)(C)NS(=O)(=O)c1cncc(-c2ccc3nc(NC(=O)NCc4ccccc4)nn3c2)c1 | > 20000 |
| CC(C)(C)NS(=O)(=O)c1cncc(-c2ccc3nc(NC(=O)NCCn4cccn4)nn3c2)c1 | 631 |
| CC(C)(C)NS(=O)(=O)c1cncc(-c2ccc3nc(NC(=O)Nc4ccccc4)nn3c2)c1 | > 100000 |

System: not listed separately
Assay: Antiinflammatory activity in human neutrophils assessed as inhibition of fMLP-induced migration
Format: functional, cell-based
Conditions: Neutrophil

| Structure (SMILES) | IC50 [nM] |
| --- | --- |
| CN(C)C(=O)CNC(=O)Nc1nc2ccc(-c3cncc(S(=O)(=O)NC(C)(C)C)c3)cn2n1 | 794 |
| CC(C)(C)NS(=O)(=O)c1cncc(-c2ccc3nc(NC(=O)NCCc4nnc(C5CC5)o4)nn3c2)c1 | 316 |
| CC(C)(C)NS(=O)(=O)c1cncc(-c2ccc3nc(NC(=O)NCCc4ccccc4)nn3c2)c1 | 398 |
| CNC(=O)Nc1nc2ccc(-c3cncc(S(=O)(=O)NC(C)(C)C)c3)cn2n1 | 794 |
| CNC(=O)CNC(=O)Nc1nc2ccc(-c3cncc(S(=O)(=O)NC(C)(C)C)c3)cn2n1 | 20000 |
| Cc1noc(C)c1CCNC(=O)Nc1nc2ccc(-c3cncc(S(=O)(=O)NC(C)(C)C)c3)cn2n1 | 251 |
| CC(C)(C)NS(=O)(=O)c1cncc(-c2ccc3nc(NC(=O)NCCN4CCOCC4)nn3c2)c1 | 50.1 |
| CC(C)(C)NS(=O)(=O)c1cncc(-c2ccc3nc(NC(=O)NCc4ccccc4)nn3c2)c1 | 1580 |
| CC(C)(C)NS(=O)(=O)c1cncc(-c2ccc3nc(NC(=O)NCCn4cccn4)nn3c2)c1 | 158 |

Molecular target: Phosphatidylinositol 4,5-bisphosphate 3-kinase catalytic subunit gamma isoform (Homo sapiens, UniProt P48736)
Assay: Inhibition of PI3Kgamma in human HL60 cell lysate by kinobead assay
Conditions: not given

Sequence of Phosphatidylinositol 4,5-bisphosphate 3-kinase catalytic subunit gamma isoform (P48736 whole entry, canonical isoform): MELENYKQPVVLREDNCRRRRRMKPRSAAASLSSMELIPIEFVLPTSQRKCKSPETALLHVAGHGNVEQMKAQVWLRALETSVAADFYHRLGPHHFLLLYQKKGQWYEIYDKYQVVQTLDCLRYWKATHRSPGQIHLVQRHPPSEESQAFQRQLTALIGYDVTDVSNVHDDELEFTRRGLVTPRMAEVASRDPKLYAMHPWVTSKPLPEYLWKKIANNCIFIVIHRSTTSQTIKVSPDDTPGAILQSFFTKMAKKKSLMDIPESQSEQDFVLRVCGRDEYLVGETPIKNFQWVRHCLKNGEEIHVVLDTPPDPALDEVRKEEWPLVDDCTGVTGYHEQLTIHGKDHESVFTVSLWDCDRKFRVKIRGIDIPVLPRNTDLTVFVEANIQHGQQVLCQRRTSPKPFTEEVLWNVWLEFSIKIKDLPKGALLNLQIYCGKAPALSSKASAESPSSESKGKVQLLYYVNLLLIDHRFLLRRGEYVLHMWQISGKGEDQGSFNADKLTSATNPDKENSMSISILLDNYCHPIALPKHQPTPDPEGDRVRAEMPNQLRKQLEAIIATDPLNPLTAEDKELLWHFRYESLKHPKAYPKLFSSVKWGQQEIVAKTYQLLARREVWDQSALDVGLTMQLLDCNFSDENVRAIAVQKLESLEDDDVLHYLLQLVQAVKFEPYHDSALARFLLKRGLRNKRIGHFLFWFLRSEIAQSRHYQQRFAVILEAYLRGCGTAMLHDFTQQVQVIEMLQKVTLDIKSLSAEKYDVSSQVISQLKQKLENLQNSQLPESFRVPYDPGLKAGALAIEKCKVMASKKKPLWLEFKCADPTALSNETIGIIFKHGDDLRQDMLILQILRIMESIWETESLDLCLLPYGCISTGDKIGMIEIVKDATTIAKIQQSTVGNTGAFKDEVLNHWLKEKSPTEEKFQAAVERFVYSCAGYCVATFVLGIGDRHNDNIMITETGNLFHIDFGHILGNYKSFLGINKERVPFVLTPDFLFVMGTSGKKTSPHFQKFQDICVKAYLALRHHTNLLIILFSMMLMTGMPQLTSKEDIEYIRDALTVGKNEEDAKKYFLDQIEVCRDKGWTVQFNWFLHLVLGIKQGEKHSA

| Structure (SMILES) | IC50 [nM] |
| --- | --- |
| CN(C)C(=O)CNC(=O)Nc1nc2ccc(-c3cncc(S(=O)(=O)NC(C)(C)C)c3)cn2n1 | 3.16 |
| CC(C)(C)NS(=O)(=O)c1cncc(-c2ccc3nc(NC(=O)NCCc4nnc(C5CC5)o4)nn3c2)c1 | 10 |
| CC(C)(C)NS(=O)(=O)c1cncc(-c2ccc3nc(NC(=O)NCCc4ccccc4)nn3c2)c1 | 31.6 |
| CNC(=O)Nc1nc2ccc(-c3cncc(S(=O)(=O)NC(C)(C)C)c3)cn2n1 | 12.6 |
| CNC(=O)CNC(=O)Nc1nc2ccc(-c3cncc(S(=O)(=O)NC(C)(C)C)c3)cn2n1 | 15.8 |
| Cc1noc(C)c1CCNC(=O)Nc1nc2ccc(-c3cncc(S(=O)(=O)NC(C)(C)C)c3)cn2n1 | 25.1 |
| CC(C)(C)NS(=O)(=O)c1cncc(-c2ccc3nc(NC(=O)NCCN4CCOCC4)nn3c2)c1 | 15.8 |
| CC(C)(C)NS(=O)(=O)c1cncc(-c2ccc3nc(NC(=O)NCc4ccccc4)nn3c2)c1 | 63.1 |
| CC(C)(C)NS(=O)(=O)c1cncc(-c2ccc3nc(NC(=O)NCCn4cccn4)nn3c2)c1 | 25.1 |
| CC(C)(C)NS(=O)(=O)c1cncc(-c2ccc3nc(NC(=O)Nc4ccccc4)nn3c2)c1 | 251 |

System: not listed separately
Assay: Apparent permeability from apical to basal side of human Caco2 cells
Format: ADME, cell-based
Conditions: Caco-2

| Structure (SMILES) | Papp A→B [×10⁻⁶ cm/s] |
| --- | --- |
| CN(C)C(=O)CNC(=O)Nc1nc2ccc(-c3cncc(S(=O)(=O)NC(C)(C)C)c3)cn2n1 | 0.54 |

System: Liver microsomes
Assay: Intrinsic clearance in human liver microsomes assessed per g of liver
Format: ADME, Microsome
Conditions: not given

| Structure (SMILES) | CLint [mL/min/g] |
| --- | --- |
| CN(C)C(=O)CNC(=O)Nc1nc2ccc(-c3cncc(S(=O)(=O)NC(C)(C)C)c3)cn2n1 | 0.5 |
| CC(C)(C)NS(=O)(=O)c1cncc(-c2ccc3nc(NC(=O)NCCN4CCOCC4)nn3c2)c1 | 1.4 |

Molecular target: Phosphatidylinositol 4,5-bisphosphate 3-kinase catalytic subunit beta isoform (Homo sapiens, UniProt P42338)
Assay: Inhibition of PI3Kbeta in human HL60 cell lysate by kinobead assay
Format: cell-free, HL-60
Conditions: not given

Sequence of Phosphatidylinositol 4,5-bisphosphate 3-kinase catalytic subunit beta isoform (P42338 whole entry, canonical isoform): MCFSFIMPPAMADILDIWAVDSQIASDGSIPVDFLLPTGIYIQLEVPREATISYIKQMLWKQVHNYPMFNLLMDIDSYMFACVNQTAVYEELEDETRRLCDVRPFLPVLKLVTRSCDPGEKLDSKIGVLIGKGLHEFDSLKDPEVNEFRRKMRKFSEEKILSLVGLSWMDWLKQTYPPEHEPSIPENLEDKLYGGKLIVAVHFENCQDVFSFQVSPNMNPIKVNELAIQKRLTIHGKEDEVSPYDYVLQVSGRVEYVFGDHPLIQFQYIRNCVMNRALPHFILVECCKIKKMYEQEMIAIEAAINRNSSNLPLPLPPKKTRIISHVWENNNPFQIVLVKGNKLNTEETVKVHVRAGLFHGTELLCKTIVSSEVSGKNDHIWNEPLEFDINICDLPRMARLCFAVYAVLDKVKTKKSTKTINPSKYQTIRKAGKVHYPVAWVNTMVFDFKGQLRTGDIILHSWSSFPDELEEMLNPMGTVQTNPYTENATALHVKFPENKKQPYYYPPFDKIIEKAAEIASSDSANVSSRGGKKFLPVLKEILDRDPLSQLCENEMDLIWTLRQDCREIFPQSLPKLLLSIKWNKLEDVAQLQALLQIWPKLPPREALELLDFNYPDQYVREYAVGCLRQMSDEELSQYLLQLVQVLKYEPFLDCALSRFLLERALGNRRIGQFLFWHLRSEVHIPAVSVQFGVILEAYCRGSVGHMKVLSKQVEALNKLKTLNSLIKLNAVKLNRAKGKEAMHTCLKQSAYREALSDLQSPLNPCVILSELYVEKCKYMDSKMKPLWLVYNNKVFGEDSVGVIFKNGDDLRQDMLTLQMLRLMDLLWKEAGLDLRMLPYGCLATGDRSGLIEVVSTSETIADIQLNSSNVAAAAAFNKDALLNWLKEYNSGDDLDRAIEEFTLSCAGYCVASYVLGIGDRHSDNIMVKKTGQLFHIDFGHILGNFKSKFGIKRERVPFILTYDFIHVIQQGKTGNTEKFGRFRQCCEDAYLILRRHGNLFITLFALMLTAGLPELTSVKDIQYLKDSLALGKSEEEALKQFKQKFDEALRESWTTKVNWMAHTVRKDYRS

| Structure (SMILES) | IC50 [nM] |
| --- | --- |
| CN(C)C(=O)CNC(=O)Nc1nc2ccc(-c3cncc(S(=O)(=O)NC(C)(C)C)c3)cn2n1 | 1260 |
| CC(C)(C)NS(=O)(=O)c1cncc(-c2ccc3nc(NC(=O)NCCc4nnc(C5CC5)o4)nn3c2)c1 | 251 |
| CC(C)(C)NS(=O)(=O)c1cncc(-c2ccc3nc(NC(=O)NCCc4ccccc4)nn3c2)c1 | 1000 |
| CNC(=O)Nc1nc2ccc(-c3cncc(S(=O)(=O)NC(C)(C)C)c3)cn2n1 | 398 |
| CNC(=O)CNC(=O)Nc1nc2ccc(-c3cncc(S(=O)(=O)NC(C)(C)C)c3)cn2n1 | > 2000 |
| Cc1noc(C)c1CCNC(=O)Nc1nc2ccc(-c3cncc(S(=O)(=O)NC(C)(C)C)c3)cn2n1 | 79.4 |
| CC(C)(C)NS(=O)(=O)c1cncc(-c2ccc3nc(NC(=O)NCCN4CCOCC4)nn3c2)c1 | > 200 |
| CC(C)(C)NS(=O)(=O)c1cncc(-c2ccc3nc(NC(=O)NCc4ccccc4)nn3c2)c1 | 3160 |
| CC(C)(C)NS(=O)(=O)c1cncc(-c2ccc3nc(NC(=O)NCCn4cccn4)nn3c2)c1 | 631 |
| CC(C)(C)NS(=O)(=O)c1cncc(-c2ccc3nc(NC(=O)Nc4ccccc4)nn3c2)c1 | > 100000 |

System: not listed separately
Assay: Efflux ratio of apparent permeability across human Caco2 cells
Format: ADME, cell-based
Conditions: Caco-2

| Structure (SMILES) | efflux ratio |
| --- | --- |
| CN(C)C(=O)CNC(=O)Nc1nc2ccc(-c3cncc(S(=O)(=O)NC(C)(C)C)c3)cn2n1 | 109 |

System: not listed separately
Assay: Kinetic solubility in 1%DMSO solution
Format: physicochemical
Conditions: read-out: Kinetic_solubility

| Structure (SMILES) | solubility kinetic [µM] |
| --- | --- |
| CN(C)C(=O)CNC(=O)Nc1nc2ccc(-c3cncc(S(=O)(=O)NC(C)(C)C)c3)cn2n1 | < 6.5 |
| CC(C)(C)NS(=O)(=O)c1cncc(-c2ccc3nc(NC(=O)NCCN4CCOCC4)nn3c2)c1 | 65 (≈ 32.7 µg/mL) |

Molecular target: T1, Phosphatidylinositol 4,5-bisphosphate 3-kinase catalytic subunit delta isoform (Homo sapiens, UniProt O00329)
T1 sequence (O00329 whole entry): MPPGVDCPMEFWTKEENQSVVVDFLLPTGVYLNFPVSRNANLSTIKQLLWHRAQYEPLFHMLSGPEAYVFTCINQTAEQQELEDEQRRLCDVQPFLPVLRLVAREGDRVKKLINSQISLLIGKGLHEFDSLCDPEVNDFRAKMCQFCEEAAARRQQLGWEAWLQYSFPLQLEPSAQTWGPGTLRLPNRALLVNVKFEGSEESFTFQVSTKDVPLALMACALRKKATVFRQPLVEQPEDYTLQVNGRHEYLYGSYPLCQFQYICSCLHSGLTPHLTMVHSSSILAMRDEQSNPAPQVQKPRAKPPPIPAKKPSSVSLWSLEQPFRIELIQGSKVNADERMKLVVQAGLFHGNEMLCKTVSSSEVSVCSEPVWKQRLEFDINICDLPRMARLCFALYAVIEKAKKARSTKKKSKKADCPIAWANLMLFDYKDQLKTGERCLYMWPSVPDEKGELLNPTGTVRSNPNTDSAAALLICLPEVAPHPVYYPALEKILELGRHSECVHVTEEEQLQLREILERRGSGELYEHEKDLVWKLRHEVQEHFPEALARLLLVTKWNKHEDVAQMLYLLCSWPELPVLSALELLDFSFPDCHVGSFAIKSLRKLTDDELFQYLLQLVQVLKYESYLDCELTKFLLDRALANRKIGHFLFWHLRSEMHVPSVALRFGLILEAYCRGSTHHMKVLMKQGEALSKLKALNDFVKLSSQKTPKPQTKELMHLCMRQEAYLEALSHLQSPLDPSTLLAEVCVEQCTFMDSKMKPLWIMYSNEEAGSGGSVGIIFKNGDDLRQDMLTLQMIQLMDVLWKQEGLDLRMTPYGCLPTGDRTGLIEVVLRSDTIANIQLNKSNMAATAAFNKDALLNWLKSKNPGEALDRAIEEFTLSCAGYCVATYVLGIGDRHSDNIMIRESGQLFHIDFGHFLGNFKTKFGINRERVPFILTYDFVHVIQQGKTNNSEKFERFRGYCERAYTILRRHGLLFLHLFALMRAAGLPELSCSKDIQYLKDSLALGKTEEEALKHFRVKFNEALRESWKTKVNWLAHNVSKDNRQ
Assay: Inhibition of PI3Kdelta in human HL60 cell lysate by kinobead assay
Conditions: not given

| Structure (SMILES) | IC50 [nM] |
| --- | --- |
| CN(C)C(=O)CNC(=O)Nc1nc2ccc(-c3cncc(S(=O)(=O)NC(C)(C)C)c3)cn2n1 | 79.4 |
| CC(C)(C)NS(=O)(=O)c1cncc(-c2ccc3nc(NC(=O)NCCc4nnc(C5CC5)o4)nn3c2)c1 | 79.4 |
| CC(C)(C)NS(=O)(=O)c1cncc(-c2ccc3nc(NC(=O)NCCc4ccccc4)nn3c2)c1 | 25.1 |
| CNC(=O)Nc1nc2ccc(-c3cncc(S(=O)(=O)NC(C)(C)C)c3)cn2n1 | 794 |
| CNC(=O)CNC(=O)Nc1nc2ccc(-c3cncc(S(=O)(=O)NC(C)(C)C)c3)cn2n1 | 794 |
| Cc1noc(C)c1CCNC(=O)Nc1nc2ccc(-c3cncc(S(=O)(=O)NC(C)(C)C)c3)cn2n1 | 12.6 |
| CC(C)(C)NS(=O)(=O)c1cncc(-c2ccc3nc(NC(=O)NCCN4CCOCC4)nn3c2)c1 | 20 |
| CC(C)(C)NS(=O)(=O)c1cncc(-c2ccc3nc(NC(=O)NCc4ccccc4)nn3c2)c1 | 1580 |
| CC(C)(C)NS(=O)(=O)c1cncc(-c2ccc3nc(NC(=O)NCCn4cccn4)nn3c2)c1 | 200 |
| CC(C)(C)NS(=O)(=O)c1cncc(-c2ccc3nc(NC(=O)Nc4ccccc4)nn3c2)c1 | > 25100 |

System: Liver microsomes
Assay: Intrinsic clearance in rat liver microsomes assessed per g of liver
Format: ADME, Microsome
Conditions: not given

| Structure (SMILES) | CLint [mL/min/g] |
| --- | --- |
| CN(C)C(=O)CNC(=O)Nc1nc2ccc(-c3cncc(S(=O)(=O)NC(C)(C)C)c3)cn2n1 | 0.9 |
| CC(C)(C)NS(=O)(=O)c1cncc(-c2ccc3nc(NC(=O)NCCN4CCOCC4)nn3c2)c1 | 0.9 |

From ChEMBL document CHEMBL2057090, “Discovery of novel PI3Kγ/δ inhibitors as potential agents for inflammation” (Bioorg Med Chem Lett, 2012)
